Test results: patent US20030143165A1, “NSAID-containing topical formulations that demonstrate chemopreventive activity” (priority 2002, published 2003)

How the values were obtained:
[1] = system: SKH-1 mice (hairless mice); assay: UV light-induced skin carcinogenesis (papillomas/tumours) in hairless mice, topical treatment for 28 weeks; assay type: in vivo; conditions: for animals that had developed at least one tumour at the end of the study: week 28
Procedure: In a first laboratory experiment performed, female SKH-1 mice (hairless mice) were purchased from the Animal Resource Service of Murdoch University, Western Australia, at approximately 3-4 weeks of age. Upon arrival at the Applicants' laboratory, the mice were housed in climate-controlled quarters (22±1° C. at 50% humidity) with a 12-hour light/dark cycle in yellow fluorescent lighting. All animals were allowed free access to rodent diet and water. The experimental protocol and all procedures were approved by CSIRO Health Sciences and Nutrition Animal Experimental Ethics Committee and followed the Australian Code of Practice for the care and use of animals for scientific purposes. The animals were observed daily during the period of UV light exposure. Individual body weights were determined twice weekly throughout the whole study period of 28 weeks.
Racemic flurbiprofen (“RS-FB”), used as the chemopreventive NSAID in this experiment, was purchased from Sigma Chemical Company (Sydney, Australia). Several topical formulation solutions were prepared by dissolving RS-FB in 70% ethanol (in water) as the carrier medium to achieve final RS-FB concentrations of 0.5, 1.0, 2.0 and 3.0% w/v. The drug solutions were prepared every two weeks throughout the whole study period.
The SKH-1 mice were divided into 5 treatment groups of 30 animals each. […] Within each treatment group, the animals were further divided into 2 subgroups of 15 animals. One subgroup was treated with vehicle or RS-FB solution one hour before the UV light exposure. The other subgroup was exposed to the UV light one hour before the application of vehicle or the allocated RS-FB solution. The solutions were applied topically to the dorsal area of the animals, in a volume of approximately 50-125 μl per application, using cotton tips.
Simulated solar irradiation was provided by an array of 6 UV-A tubes (Sylvania F40BL) symmetrically housed around a single UV-B tube (Philips FL 40SE) in a custom-built unit. As the skin of the animals progressively thickened, the time of exposure to reach 1 minimal erythematous dose (MED) was increased from 7 minutes per day to 10 minutes per day, 5 days a week. The integrated UV-B irradiance (280-320 nm) was 2.4×10^−4 W/cm^2, and the UV-A (320-400 nm) was 1.8×10^−3 W/cm^2 as measured with a model IL 1700 spectro-radiometer (International Light, Newburyport, Mass.). During treatment, the mice in each group were placed in separate open plastic cages in the UV housing unit. […] Treatment in this manner was continued for 28 weeks.
The development of skin cancer was assessed as the visible appearance of papillomas, which subsequently developed, in a subset of cases, to tumours. Weekly papilloma and tumour counts were performed after the appearance of the first papilloma and were continued until the termination of the experiment (week 28). The diameters of papillomas and tumours were measured and their locations noted. Data was recorded representing the number of (a) papillomas, (b) tumours and (c) papillomas plus tumours per animal. While the natural progression is from papilloma to tumour, it will be appreciated by those skilled in the art that, in some cases, the distinction between a papilloma and a tumour could not be made unequivocally. The data was analysed taking this into account. The appearance of the skin lesions was expressed progressively as incidence (percentage of mice bearing at least one papilloma/tumour) and yield (average number of papillomas/tumours per mouse) as well as burden (area of skin affected at the end of study).
Analysis of variance (ANOVA) was used to determine whether RS-FB administration caused a statistically significant change in the appearance and yield of papilloma/tumours in comparison with the control (vehicle group). Comparisons between groups was performed using the Scheffe method. Significance was concluded when P<0.05.

[2] = system: non-pigmented human skin cancer cell line MM96L; assay: in vitro proliferation (MTS colorimetric assay) and apoptosis of human skin cancer cell line; assay type: cell-based; conditions: for effect on proliferation rate (FIG. 4): 24 hours exposure, MTS assay; for apoptosis: DNA fragmentation, acridine orange staining, flow cytometry
Source text: FIG. 4 is a chart that graphically presents laboratory experiment test data regarding the relative effect of racemic flurbiprofen to its individual enantiomers, R-flurbiprofen flurbiprofen (“R-FB”) and S-flurbipofen (“S-FB”), on the in vitro proliferation of a cancerous human skin cell line. For the underlying experiment, the non-pigmented human skin cancer cell line M[…] was studied in vitro utilizing the MTS colorimetric assay to assess cell proliferation. DNA fragmentation assays, acridine orange staining and flow cytometry were also utilized to assess apoptosis and cell cycle effects. […] An important finding was that there was no difference between the enantiomers of flurbiprofen in their anti-proliferative potency, despite the fact that only the S-isomer was capable of reducing COX activity.

[3] = system: cyclooxygenase (COX); conditions: cited from earlier work
[4] = system: human skin cells; assay: anti-proliferative effects of other NSAIDs on human skin cells; assay type: cell-based; conditions: range depends on duration of exposure, read-out: IC50 (concentration required to inhibit cell proliferation by 50%)
Source text: FIG. 4 is a chart that graphically presents laboratory experiment test data regarding the relative effect of racemic flurbiprofen to its individual enantiomers, R-flurbiprofen flurbiprofen (“R-FB”) and S-flurbipofen (“S-FB”), on the in vitro proliferation of a cancerous human skin cell line. For the underlying experiment, the non-pigmented human skin cancer cell line MM96L was studied in vitro utilizing the MTS colorimetric assay to assess cell proliferation. DNA fragmentation assays, acridine orange staining and flow cytometry were also utilized to assess apoptosis and cell cycle effects. […] An important finding was that there was no difference between the enantiomers of flurbiprofen in their anti-proliferative potency, despite the fact that only the S-isomer was capable of reducing COX activity.
Further experiments similar to that discussed above with respect to FIG. 4 were conducted to assess the anti-proliferative effects of other NSAIDs on human skin cells. […] These values are similar to the IC50 vales encountered for flurbiprofen.

## CC(C(=O)O)c1ccc(-c2ccccc2)c(F)c1 (racemic) [racemic flurbiprofen, flurbiprofen]
[1]; 0.5% w/v topical in 70% ethanol, UV 5 days a week
  DP50 (time for 50% of mice within the group to develop at least one papilloma): 17 weeks
[1]; 0.5% w/v topical
  animals that had developed at least one tumour at the end of the study: 45%
[1]; 1% and 2% treatment groups, representative animals
  skin appearance at completion of week 28 (FIG. 3c, 3d) vs vehicle animal: reduction in tumours and ulcers
[1]; 1% w/v topical in 70% ethanol, UV 5 days a week
  DP50 (time for 50% of mice within the group to develop at least one papilloma): 17 weeks
[1]; 1.0% w/v topical
  animals that had developed at least one tumour at the end of the study: 25%
[1]; 2% w/v topical in 70% ethanol, UV 5 days a week
  DP50 (time for 50% of mice within the group to develop at least one papilloma): 17.5 weeks
[1]; 2.0% w/v topical
  animals that had developed at least one tumour at the end of the study: 25%
[1]; 3% w/v topical, initial treatment (until week 10)
  adverse effects in the animals: adverse effects (such as lethargy, dehydration, and diarrhoea)
[1]; 3-2% w/v topical (3%, then 2% from week 10)
  DP50 (time for 50% of mice within the group to develop at least one papilloma): 18.5 weeks
[1]; 3-2% w/v topical
  animals that had developed at least one tumour at the end of the study: 10%
[1]; all concentrations up to and including 2% topical, 28 weeks
  adverse effects / pathology in the animals: no signs of adverse effects
[1]; all treatment groups 0.5-3-2% w/v, ANOVA/Scheffe
  papilloma/tumour yield (average number per animal) vs control over time (FIG. 1): statistically significant from week 13
[1]; highest concentration (3-2% w/v) vs vehicle control
  reduction in the number of animals that developed skin tumours compared with control group: greater than 80%
[1]; papilloma/tumour incidence compared between the two subgroups
  protection against photo-carcinogenesis, application one hour before vs one hour after UV light: superior protection
[2]
  effect on proliferation rate (FIG. 4): inhibit the proliferation rate
  apoptosis: induce apoptosis

## C[C@@H](C(=O)O)c1ccc(-c2ccccc2)c(F)c1 [R-FB, R-flurbiprofen]
[2]
  difference between the enantiomers in anti-proliferative potency: no difference
  effect on proliferation rate (FIG. 4): inhibit the proliferation rate
  apoptosis: induce apoptosis
[3]
  COX inhibitory activity: low COX inhibition

## CC(C)Cc1ccc([C@@H](C)C(=O)O)cc1 [R-ibuprofen]
[4]
  IC50: 1.49 mM

## C[C@H](C(=O)O)c1ccc(-c2ccccc2)c(F)c1 [S-FB, S-flurbiprofen]
[2]
  difference between the enantiomers in anti-proliferative potency: no difference
  effect on proliferation rate (FIG. 4): inhibit the proliferation rate
  apoptosis: induce apoptosis
[3]
  COX inhibitory activity: can inhibit cyclooxygenase

## CC(C)Cc1ccc([C@H](C)C(=O)O)cc1 [S-ibuprofen]
[4]
  IC50: 1.5 mM

## CC(=O)Oc1ccccc1C(=O)O [aspirin]
[4]
  IC50: 0.97 to 5.53 mM

## CC1=C(CC(=O)O)c2cc(F)ccc2/C1=C\c1ccc([S+](C)[O-])cc1 (stereo not shown) [sulindac]
[4]
  IC50: 1.03 to 2.16 mM
